Read-outs that look alike come from different tables or passages of the source.
Experiments:
[1] = analgesia induced by pentobarbital in mice; format: in vivo; details: p.o.
Excerpt: (§1) The compounds of Examples 1, 4, 11 and 12 were subjected to behavioural tests in accordance with "predictability and specificity of behaviour screening tests for neuroleptics", P. Worms and K. G. Lloyd, […], Vol. 5, pages 445-450, 1979, comprising: […]

[2] = catalepsy induced by haloperidol in rats; format: in vivo; details: p.o.
Excerpt: as §1

[3] = base screening: anti-histamine in vitro
Excerpt: (f) anti-histamine in vitro as determined in accordance with R. Magnus, Arch f.d., ges. physiol., Vol. 102, pages 123-151, 1904.

[4] = hypomotility induced by amphetamine in rats; format: in vivo; details: p.o.
Excerpt: as §1

[5] = base screening: bronchodilatory in vitro
Excerpt: (e) bronchodilatory in vitro as determined in accordance with F. P. Luduena et al., Arch. int. Pharmacodyn, Vol. 111, pages 392-400, 1957

[6] = base screening: anti-allergic in male and female rats; format: in vivo
Excerpt: (d) anti-allergic in male and female rats, as determined in accordance with J. Goose and A. M. J. N. Blair, Immunol., Vol. 16, pages 749-760, 1969

[7] = behavioural study in rats: anxiety induced by a new environment (rearings and movements); format: in vivo, male Sprague-Dawley rats; details: Rattus norvegicus, 0.5 h; oral, sodium salt in solution, 30 min before test, 15 min count; S.N.: mean of two regression curves; S.A.: from rearings curve; read-out: ED 50
Excerpt: The xanthines obtained in accordance with the preceding Examples were the subject of a behavioural study in rats as a function of the anxiety induced by a new environment. In rats, anxiety is manifested by rearing the animal on its two hind paws, whilst locomotive activity is expressed by their movements.
A state of anxiety is induced by confronting "naive" male Sprague-Dawley (Iffa-Credo, France) rats weighing from 260 to 300 g with a new environment in the form of cages of Macrolon (30×25 cm) which are situated in a sound-proofed air-conditioned room (22° C./50% relative humidity).
The number of rearings and movements is automatically determined by means of infrared photoelectric cells which only emit electrical pulses for the active movements of the animal and not for its static movements, such as those of its head and tail, for reasons of reproducibility. These photoelectric cells scan the cages at two different levels so as to distinguish the standing-up movements from the other movements. The number of rearings and movements is counted by the two rows of photoelectric cells, memorised and read out using a printer in accordance with a pre-established program.
The tested compound in solution in the form of its sodium salt is orally administered by oesophagus probe (the reference administration being formed by 6 ml/kg of distilled water) 30 minutes before the animals are placed in the cages. The number of rearings and movements is determined during the 15 minutes after they have been put into the cages in relation to the effect generated by the reference administration.
The ED 50 dose (expressed in mg/kg), i.e. the quantity of substance required to bring about a 50% variation in the motive activity in relation to the reference administration, is determined from the development of the effects of the tested substances on the number of movements and rearings as a function of the progressive doses administered expressed as a percentage of the movements and rearings counted for the reference administration.
The gradients of the regression curves corresponding to the movements and to the rearings are compared by recording the value of the gradient of the movement curve on the abscissa (d) and the value of the gradient of the rearing curve on the ordinant (r) of a system of rectungular axes.
The ratio of the gradient of the movements to that of the rearings is also determined, enabling the specificity of effect of a given substance on the anxiety state to be assessed.
The effect of a substance is determined by its position relative to the curve d=r of gradient=1. The substances situated on this curve have a similar effect on the rearings and movements, being sedatives with a non-specific effect (S.N.). For these compounds, the ED 50 value quoted corresponds to the mean taken from the two regression curves.
These compounds are sedatives of anxiolytic character (S.A.). In this case, the ED 50 value is calculated from the regression curve of the rearings.

[8] = base screening: diuretic in male rats; format: in vivo; details: Rattus norvegicus, read-out: minimal effective dose producing a significant response, diuretic (c)
Excerpt: (c) diuretic in male rats, as determined in accordance with W. L. Lipschitz, Z Hadidian and A. Kerpcsar, JPET, Vol. 79, pages 97-110, 1943

[9] = stereotype behaviour induced by apomorphine in rats; format: in vivo; details: p.o.
Excerpt: as §1

[10] = in vivo; details: mouse, po, solution in DMSO
[11] = in vivo; details: rat, po, solution in DMSO
Excerpt: (b) Determination of the acute toxicity LD 50 in male and female rats in solution is DMSO (reference DMSO alone) in accordance with C.

[12] = rectal temperature in mice; format: in vivo; details: p.o.
Excerpt: as §1

[13] = climbing behaviour induced by apomorphine in mice; format: in vivo; details: p.o.
Excerpt: as §1

CCCCn1c(=O)n(CCC)c(=O)c2[nH]c(C)nc21 [Example 11, 1-propyl-3-butyl-8-methyl xanthine]
analgesia induced by pentobarbital [1]: potentialisation at 0.5 mg/kg p.o.
catalepsy induced by haloperidol [2]: potentialisation at 1 mg/kg p.o.
minimal effective concentration producing a significant response, anti-histamine (f) [3]: 50 µg/mL
hypomotility induced by amphetamine [4]: antagonism at 0.5 mg/kg p.o.
minimal effective concentration producing a significant response, bronchodilatory (e) [5]: 10 µg/mL
minimal effective dose producing a significant response, anti-allergic (d) [6]: no effect
ED50 [7]: 0.35 mg/kg
minimal effective dose [8]: 0.25 mg/kg
stereotype behaviour induced by apomorphine [9]: no antagonism up to 8 mg/kg p.o.
LD50 ([10]; female, read-out: LD 50, mice female): 151 mg/kg
LD50 ([10]; male, read-out: LD 50, mice male): 91 mg/kg
LD50 ([11]; female, read-out: LD 50, rats female): 15 mg/kg
LD50 ([11]; male, read-out: LD 50, rats male): 25 mg/kg
rectal temperature [12]: hypothermal effect at 2 mg/kg p.o.
climbing behaviour induced by apomorphine [13]: inhibition at 1 mg/kg p.o.

— patent US4581451A, “Preparation of di- and tri-substituted xanthine compounds” (priority 1980, dated 1986)
